Data from patent publication US6545033B1, “Fused 1-(2,6-dichloro-4-trifluoromethylphenyl)-pyrazoles, the synthesis thereof and the use thereof as pesticides” (3-Dimensional Pharmaceuticals, Inc., priority 1999, dated 2003).

Tests used:
[1] = test system: cat fleas (Ctenocephalides felis), NC Fleas; experiment: In vivo cat flea contact assay, NC fleas; conditions: contact with treated filter disk in vial, about 24-30 hours; mM = concentration of the DMSO solution, about 1 μL applied
Method: This example describes an in vivo assay to screen compounds for their ability to kill cat fleas via contact.
Test compounds were dissolved in dimethylsulfoxide (DMSO) at concentrations ranging from about 0.05 mM to about 100 mM. About 1 μL of dissolved test compound was dispensed onto a 6 mm (diameter) GF/C filter disk (filter material available from Whatman Inc., Clifton, N.J.) in the bottom of a 4 mL screw-top glass vial and allowed to air dry 24-48 hours. Positive control vials were prepared in the same manner except that no test compounds were dissolved in the DMSO. About 20 newly emerged cat fleas (Ctenocephalides felis) were sedated by refrigeration at 0-4° C. and transferred to each vial. Each vial was sealed with a thin, perforated Teflon™ septum secured by an open top screw cap and held vertically in the dark. After about 24-30 hours, the healthy, moribund, and dead cat fleas in each vial were counted. The percentage of dead cat fleas in each vial was then calculated using the formula M=100(D−(FC/100))/(F−(FC/100)), in which M is the percentage of dead cat fleas due to the addition of the test compound, D is the number of dead cat fleas in the test vial, F is the total number of cat fleas in the test vial, and C is the percentage of dead cat fleas in the control vials.

[2] = test system: houseflies (Musca domestica); experiment: In vivo housefly contact assay; conditions: contact in coated glass test tube, about 24 hours; mM = concentration of the DMSO solution, about 1 μL applied
Method: This example describes an in vivo assay to screen compounds for their ability to kill houseflies via contact. Newly emerged houseflies (Musca domestica, available from Rincon-Vitova Insectaries, Inc., Ventura, Calif.) were sedated with carbon dioxide gas, collected in 50 mL polypropylene conical tubes containing filter paper saturated with 10% (w/w) sucrose in water, and allowed to feed at room temperature for about 2-4 hours. Test compounds were dissolved as in dimethylsulfoxide (DMSO) at concentrations ranging from about 0.05 mM to about 100 mM. About 1 μL of dissolved test compound and about 100 μL of isopropanol were dispensed into the bottom of a 9 mL screw-top glass test tube. Positive control test tubes were prepared in the same manner except that no test compounds were dissolved in the DMSO. Each test tube was rolled to coat the sides with the chemical solution, and allowed to air dry 24-48 hours. About 20 houseflies were sedated by refrigeration at 0-4° C. and transferred to each test tube. Each test tube was sealed with organdy cloth secured by an open top screw cap and laid horizontally in the dark. After about 24 hours, the healthy, moribund, and dead houseflies in each test tube were counted. The percentage of dead houseflies in each test tube was then calculated using the formula M=100(D−(FC/100))/(F−(FC/100)), in which M is the percentage of dead houseflies due to the addition of the test compound, D is the number of dead houseflies in the test tube, F is the total number of houseflies in the test tube, and C is the percentage of dead houseflies in the control test tubes.

SMILES | LD50 (mM), NC Fleas [1] [mM] | LD50 (mM), Flies [2] [mM]
FC(F)(F)c1cc(Cl)c(-n2cc3c(n2)CSC3)c(Cl)c1 [Compound 3, 2-[2,6-Dichloro-4-(trifluoromethyl)phenyl]-4,6-dihydrothieno-[3,4-c]pyrazole] | 3.0 | 2.7
FC(F)(F)c1cc(Cl)c(-n2cc3c(n2)CCC3)c(Cl)c1 [Compound 11, 2-[2,6-Dichloro-4-(trifluoromethyl)phenyl]-2,4,5,6-tetrahydrocyclopenta[c]pyrazole] | 7 | >100
FC(F)(F)c1cc(Cl)c(-n2cc3c(n2)CCCCC3)c(Cl)c1 [Compound 15, 2-[2,6-Dichloro-4-(trifluoromethyl)phenyl]-2,4,5,6,7,8-hexahydrocyclohepta[c]pyrazole] | 33.5 | >100
